Experimental data: patent US9429582B2, “Tyrosine-phosphorylated WBP2, a novel cancer target and biomarker” (National University of Singapore, priority 2010, dated 2016)

Legend:
Format in all cases: cell-based, human
PR = assay: PRE-Luciferase reporter assay in T47D; conditions: 100 nM P4 24 hr, 1 hr pretreatment with Iressa
Experimental: (§1) A: Hormone-stripped MCF7 or T47D were co-transfected with vector, WBP2-WT or WBP2-Y192-231F mutant and ERE/PRE-Luciferase reporter constructs. Cells were either left alone or stimulated with (a) 50 ng/ml EGF for 5 min, (b) 10 nM E2/100 nM P4 for 24 hr, (c) E2/P4 and EGF in the absence or presence of 1 hr pretreatment with 100 μM Iressa(Ir). ERα/PR-transactivated luciferase activities in various conditions were then assayed. **P<0.01, ***P<0.001, Student's t-test (2-tailed). B: T47D were hormone-stripped and stimulated with 10 nM E2 for the indicated time (0-24 hr) in the absence and presence of 1 hr pretreatment with 10 μM Iressa(k). C: WT-WBP2 or Y192-231F mutant-transfected T47D were hormone stripped followed by 24 hr stimulation with 10 nM E2. For both experiments B and C, cells were then harvested for subcellular fractionation into nuclear and cytoplasmic fractions, which were used for IB/IP analysis with antibodies indicated. Histone 2A and GADPH were used as nuclear and cytoplasmic marker respectively. […] ERE (Top panel)/PR (Bottom panel)-transactivated luciferase activities in various conditions were then assayed analyzed in relative to vehicle-treated vector control. **P<0.01, ***P<0.001, Student's t-test (2-tailed). […] ERα-transactivated luciferase activities in various conditions were then assayed analyzed in relative to vehicle-treated vector control. […]

WBP2 [1] = assay: Subcellular fractionation of T47D, nuclear WBP2 upon estrogen stimulation; conditions: 10 nM E2 0-24 hr, 1 hr pretreatment with 10 μM Iressa
Experimental: as §1

ERα = assay: ERE-Luciferase reporter assay in MCF7; conditions: MCF7; 10 nM E2 24 hr; 1 hr pretreatment with Iressa
Experimental: as §1

WBP2 [2] = assay: Estrogen/progesterone-induced WBP2 tyrosine phosphorylation in MCF7 (IP/IB); conditions: 10 nM E2 or 100 nM P4 for 24 hr, 10 μM Iressa pre-treatment for 1 hr
Experimental: A: Serum-starved cells were stimulated with 50 ng/ml EGF (E) for 5 min or hormone-stripped cells were stimulated with 10 nM Estrogen (E2) or 100 nM Progesterone (P4) for 24 hr with/without 10 μM Iressa (Ir) pre-treatment for 1 hr. Whole cell lysates were used for IP/IB analysis with antibodies indicated. […] D: Serum-starved MCF7 were stimulated with 50 ng/ml EGF (E) for 5 min or hormone-stripped cells were stimulated with 10 nM estrogen (E2) or 100 nM progesterone (P4) for 24 hr with/without 10 μM Iressa (Ir) pre-treatment for 1 hr. Whole cell lysates were used for IP/IB analysis with antibodies indicated. […] 24 hr post-transfection, serum-starved MCF7 were stimulated with 50 ng/ml EGF (E) for 5 min or hormone-stripped cells were stimulated with 10 nM Estrogen (E2) or 100 nM Progesterone (P4) for 24 hr. Whole cell lysates were used for IP/IB analysis with antibodies indicated. “O” denotes “untreated/vehicle-treated”
For all experiments involving estrogen/progesterone (Sigma), MCF7 and T47D were cultured in Phenol-Red Free RPMI1640 (Sigma) containing 5% Charcoal-dextran Stripped FBS (Hyclone) for at least 2 days before stimulation. […] Fresh hormone/drug was replenished every day for treatment that last for more than 1 day.
MCF7, MDA-MB231, T47D, HeLa and MCF10A were from American Type Culture Collection. […]

COc1cc2ncnc(Nc3ccc(F)c(Cl)c3)c2cc1OCCCN1CCOCC1 [Iressa]
progesterone-induced coactivator activity of WBP2 (PR reporter) (PR): abolished | nuclear WBP2 upon estrogen stimulation (WBP2 [1]): reduced | estrogen-induced coactivator activity of WBP2 (ERα reporter) (ERα): abolished | estrogen/progesterone-induced WBP2 phosphorylation (WBP2 [2]): Significant abolishment
